Data published in patent US9404080B2, “Human taste cells capable of continuous proliferation” (B.R.A.I.N. BIOTECHNOLOGY RESEARCH AND INFORMATION NETWORK AG, priority 2012, dated 2016).
Entries after “also recorded” stand apart in the source; their conditions may differ.

What was measured:
[1] = tested on: human taste cells BR-HTC8; assay: FLIPR fluorescent membrane potential (FMP) imaging assay in BR-HTC8; format: cell-based; settings: BR-HTC8, increasing concentrations in KH-buffer
Method: This cell depolarization was measured by using voltage-sensitive dyes including FLIPR fluorescent membrane potential (FMP) dye (Molecular Devices R8123). Before the assay, cells were maintained in HTC medium for at least 48 hours as described above in Example 1. Cells were then trypsinized with accutase (e.g. PAA, L11-007) or TrypLE (e.g. Gibco, 12563) and seeded into poly-D-lysine coated 96-well assay plates (Corning) at a density of 15,000 cells/well in […].
After 24 hours, medium was removed and the cells are washed once with 100 μl KH buffer (10 mM HEPES pH7.4 containing 118 mM NaCl, 4.7 mM KCl, 4.2 mM NaHCO3, 1.2 mM KH2PO4, 1.2 mM MgSO4, 1.3 mM CaCl2) and then stained with 200 μl KH buffer containing FLIPR FMP dye according instructions of the manufacturer […] and incubation for 2 hours at 37° C. The plates were then transferred into a fluorescence microplate reader to monitor changes in membrane potential-dependent fluorescence (excitation 530 nm, emission 565 nm) after the addition of 50 μl KH-buffer supplemented with the test molecule under investigation. The test molecule was added 16 seconds after starting the scan and baseline recording, mixed twice, and then recording continued for additional 74 seconds. Data points of a total of 35 reads were collected.
Data analysis/Data recording—Changes of the membrane potential was measured as the change of peak fluorescence (ΔF) over the baseline level (F). Data were expressed as the mean S.E. of the ΔF/F value of replicated independent samples. Data analysis was done with software provided by the manufacturer of the microplate reader (Molecular Devices).
(§1) To test, whether stimulation of human taste cells with taste molecules leads to changes in cellular membrane potential the FLIPR fluorescent membrane potential assay was performed as described above. Non-taste cells including HEK293 cells and non-lingual, proliferating primary cells isolated from the oral cavity served as a control and were treated equally throughout the procedure. Changes in membrane potential were recorded on a Molecular Devices Fluorescence microplate reader. Measurement was started by addition of increasing concentrations of the taste molecules in KH-buffer to the cells. KH-buffer served as negative control and KH-buffer containing 4 μM FCCP (e.g. Sigma, C2920) served as a positive control. […] Data were obtained from several independent experiments and performed in triplicates.
as §1, with “This cell depolarization can be measured by using voltage-sensitive dyes including FLIPR fluorescent membrane potential (FMP) dye (Molecular Devices R8123) as described above in Example 6. To” for “To”, “oxytocin” for “taste molecules”, “oxytocin” for “the taste molecules”

[2] = tested on: Non-taste cells including HEK293 cells, Cal33 cells, and non-lingual, proliferating primary cells isolated from the oral cavity; assay: Fluo-4 fluorescent calcium imaging assay in non-taste control cells; format: cell-based, human
Method: Briefly, human taste cells were seeded in 96-well plates and stained with Fluo4-AM. Non-taste cells including HEK293 cells, Cal33 cells, and non-lingual, proliferating primary cells isolated from the oral cavity served as a control. Changes in Ca^2+-dependent Fluo-4 fluorescence were recorded on a Molecular Devices fluorescence microplate reader. Measurement was started by addition of increasing concentrations of the taste molecules. […] Calcium signals for each test molecule are depicted as relative fluorescence units (RFU).
(§2) To test, whether stimulation of human taste cells with these taste molecules leads to changes in intracellular calcium the Fluo-4 fluorescent calcium imaging assay was performed as described above. Non-taste cells including HEK293 cells and non-lingual, proliferating primary cells isolated from the oral cavity served as a control and were treated equally throughout the procedure. Changes in Ca^2+-dependent Fluo-4 fluorescence were recorded on a Molecular Devices Fluorescence microplate reader. Measurement was started by addition of increasing concentrations of the taste molecules in KH-buffer to the cells. KH-buffer served as negative control and KH-buffer containing 1 μM ionomycin served as a positive control. […] Calcium signals for each test molecule are depicted as Relative Fluorescence Units (RFU), which means that calcium mobilization in response to taste molecules was calculated dF/F0, with dF is (peak fluorescence F1−baseline fluorescence F0). […] Data were obtained from several independent experiments and performed in triplicates.

BR-HTC38 cells = assay: Fluo-4 fluorescent calcium imaging assay in TAS2R38-transduced BR-HTC38; format: cell-based, human; settings: BR-HTC38 (TAS2R38 expressed) vs BR-HTC8
Method: Changes in Ca^2+-dependent Fluo-4 fluorescence were recorded on a Molecular Devices fluorescence microplate reader. Measurement was started by addition of increasing concentrations of the taste molecules in KH-buffer to the cells. KH-buffer served as negative control and KH-buffer containing 1 μM ionomycin served as a positive control. […] Calcium signals for each test molecule are depicted as Relative Fluorescence Units (RFU), which means that calcium mobilization in response to taste molecules was calculated dF/F0, with dF is (peak fluorescence F1−baseline fluorescence F0). […] Data were obtained from several independent experiments and performed in triplicates.

[3] = tested on: human taste cells BR-HTC8; assay: Fluo-4 fluorescent calcium imaging assay in BR-HTC8; format: cell-based; as to Fluo-4 assay BR-HTC8: key: + indicates that the analysis was successful and that the mRNA was detected by RT-PCR or that stimulation of human taste cells with the respective taste molecule resulted in a dose-dependent increase in intracellular calcium or decrease in cellular membrane potential
Method: Before the assay, cells are maintained in HTC medium for at least 48 hours as described in Example 1. Cells are then trypsinized with accutase (e.g. PAA, L11-007) or TrypLE (e.g. Gibco, 12563) and seeded into poly-D-lysine coated 96-well assay plates (e.g. Corning) at a density of 15,000 cells/well in 100 μl HTC medium.
After 24 hours, the cells (still in 100 μl medium) are stained by addition of 100 μl of Fluo-4 staining solution, which consists of KH buffer (10 mM HEPES pH7.4 containing 118 mM NaCl, 4.7 mM KCl, 4.2 mM NaHCO3, 1.2 mM KH2PO4, 1.2 mM MgSO4, 1.3 mM CaCl2) containing 4 μM Fluo-4 (Molecular Probes) and incubation for 1 hour at 37° C. Final Fluo-4 concentration in the staining solution/medium mixture is 2 μM. Staining solution is then replaced by 80 μl KH-buffer per well and plates are transferred into a fluorescence microplate reader to monitor changes in Ca^2+-dependent fluorescence (excitation 488 nm, emission 530 nm) after the addition of 20 μl KH-buffer supplemented with the test molecule under investigation. The test molecule was added 16 seconds after starting the scan and baseline recording, mixed twice, and then recording continued for additional 44 seconds. Data points of a total of 18 reads were collected. Data analysis/Data recording—Calcium mobilization was measured as the change of peak fluorescence (ΔF) over the baseline level (F). Data were expressed as the mean S.E. of the ΔF/F value of replicated independent samples. Data analysis was done with software provided by the manufacturer of the microplate reader (e.g. Molecular Devices).
as §2
In order to perform to the Fluo-4 fluorescent calcium imaging experiment in the absence of extracellular Ca^2+ the procedure was conducted as described above, however, the KH-buffer was prepared without addition of Ca^2+. Measurement was started by addition of increasing concentrations of the taste molecules in KH-buffer without Ca^2+ to the cells. KH-buffer without Ca^2+ served as negative control and KH-buffer without Ca^2+ containing 1 μM ionomycin served as a positive control.
To test, whether stimulation of human taste cells with oxytocin leads to changes in intracellular calcium the Fluo-4 fluorescent calcium imaging assay was performed as described above in Example 5. Briefly, the human taste cells were seeded in 96-well plates and stained with 2 μM of the calcium-sensitive fluorescence dye Fluo4 in HTC/KH buffer medium for one hour at 37° C. with subsequent replacement of the staining solution with KH-buffer. Non-taste cells including HEK293 cells and non-lingual, proliferating primary cells isolated from the oral cavity served as a control and were treated equally throughout the procedure. Changes in Ca^2+-dependent Fluo-4 fluorescence were recorded on a Molecular Devices Fluorescence microplate reader.

Which results are given for `OCc1ccccc1O[C@@H]1O[C@H](CO)[C@@H](O)[C@H](O)[C@H]1O` [Salicin]?
change of cellular membrane potential (FLIPR FMP dye fluorescence) on addition of the test molecule [1]: did not elicit significant changes in cellular membrane potential; increase of Fluo4-fluorescence in control cells [2]: not in control cells; dose-dependent Fluo-4 calcium response in BR-HTC38 compared with parental BR-HTC8 (BR-HTC38 cells): enhanced; change of Fluo4-fluorescence / intracellular calcium on addition of the test molecule ([3]; BR-HTC8, increasing concentrations in KH-buffer with Ca2+): dose-dependent increase of Fluo4-fluorescence; Fluo-4 calcium response in the absence of extracellular Ca2+ ([3]; KH-buffer without Ca2+, BR-HTC8, molecule alone): increase of intracellular calcium; also recorded: dose-dependent increase of Fluo4-fluorescence; Fluo-4 assay BR-HTC8 ([3]; dose-dependent increase in intracellular calcium on stimulation with the cognate bitter molecule of the TAS2R named in the row): +
